A short description of this assay: Inhibition of Aurora kinase B in human HCT116 cells assessed as induction of 8N polyploidy.

For `Cc1cc(Nc2nc(Sc3ccc(NC(=O)CN4CC[C@@H](C(=O)NC5CCCC5)C4)cc3)nn3cccc23)n[nH]1`, the EC50 (in general, the concentration at which the effect is half-maximal) was 3 nM.
As to `Cc1cc(Nc2nc(Sc3ccc(NC(=O)CN4CC[C@@H](C(=O)N5CCC(F)(F)C5)C4)cc3)nn3cccc23)n[nH]1`, the concentration giving a half-maximal response (EC50) turned out to be 3 nM.

These data come from BindingDB's records for doi:10.1021/jm201702g (Ambit Biosciences, 2012).
